Data from patent US20250243160A1, “INDOLE DERIVATIVES FOR TARGETING AUTOPHAGY” (Automera PTE. LTD, priority 2024, published 2025).

System: p62 puncta
Test: p62 puncta immunocytochemistry imaging in HeLa cells
Type: cell-based
Conditions: 24 hours treatment, relative to vehicle control (DMSO)
Method: HeLa cells were seeded in coated 96-well plates (10,000 cells) and allowed to adhere overnight. After 24 hours of treatment with either vehicle (DMSO) or test compounds, the media was discarded, and cells were rinsed with ice-cold 1×PBS before fixation by 4% formaldehyde or paraformaldehyde for 20 min. Cells were then washed with 1×PBS and permeabilized with 0.1% Triton X-100 in PBS for 20 min and blocked with Blocking Buffer in PBS for 1 hour. The cells were incubated thereafter for 1 hour with anti-p62 primary antibody in Blocking Buffer, followed by incubation with secondary antibody for 1 hour. DAPI dye was used to visualize nuclei of fixed cells. The blocking buffer used were 5% Fetal Bovine Serum (FBS, ThermoFIsher Scientific, 10270106) and Li-cor Intercept (PBS) Blocking Buffer (Li-cor, 927-70001). The primary antibody used was mouse anti-p62 primary antibody (Novus Biologicals, H00008878-M01). The secondary antibodies used were goat anti-mouse Alexa Fluor Plus 488 secondary antibody (Invitrogen, GOXMS) and goat anti-mouse Alexa Fluor 488 secondary antibody (Invitrogen, A-11029). The DAPI dyes used were DAPI dye (Invitrogen, 62248) and DAPI dye (Invitrogen, D1306).
For the EVOS M7000 System, cells were imaged on the EVOS M7000 microscope using a 20× air objective (Nikon, N.A 0.45). DAPI and p62 channels were illuminated with LED light cubes using integrated hard-coated filter sets for DAPI (357/447 nm) and GFP (470/525 nm) respectively. Images were analysed for p62 puncta count on the Celeste 6.0 software.
For the Operetta CLS System, cells were imaged on the Operetta CLS using a 63× water objective on the DAPI and Alexa 488 channels. Images were analysed for p62 puncta count on the Harmony 5.1 software.
HeLa cells were treated with compounds for 24 hours to evaluate the effect of these compounds on p62 puncta activity. The resulting changes in levels of p62 puncta were assessed by imaging, either on the EVOS M7000 or Operetta CLS systems as described in experimental procedures. The fold change of p62 puncta levels induced by compound treatment relative to vehicle control (DMSO) was determined and summarized in Table 10.

SMILES	p62 puncta (fold change of p62 puncta levels)
C#CCCOCCOCCOCCNCc1cc(F)cc2c1ccn2Cc1ccc(Cl)cc1 [Compound 87, 2-(2-(2-(but-3-yn-1-yloxy)ethoxy)ethoxy)-N-((1-(4-chlorobenzyl)-6-fluoro-1H-indol-4-yl)methyl)ethan-1-amine]	++ (>2-fold change in p62 puncta levels relative to DMSO control)
CC(C)(C)OC(=O)N1CCC(COCCNCc2cc(F)cc3c2ccn3Cc2ccc(Cl)cc2)CC1 [Compound 134]	++ (>2-fold change in p62 puncta levels relative to DMSO control)
CC(C)(C)OC(=O)N1CCN(CCOCCNCc2cc(F)cc3c2ccn3Cc2ccc(Cl)cc2)CC1 [Compound 156]	++ (>2-fold change in p62 puncta levels relative to DMSO control)
CC(C)(C)OC(=O)NCCCCCCCCOCCNCc1cc(F)cc2c1ccn2Cc1ccc(Cl)cc1 [Compound 158]	++ (>2-fold change in p62 puncta levels relative to DMSO control)
OCCNCc1cncc2c1ccn2Cc1ccc(Cl)cc1 [Compound 110, 2-(((1-(4-chlorobenzyl)-1H-pyrrolo[2,3-c]pyridin-4-yl)methyl)amino)ethan-1-ol]	++ (>2-fold change in p62 puncta levels relative to DMSO control)
COC1CN(Cc2cncc3c2ccn3Cc2ccc(F)cc2)C1 [Compound 114]	+ (<2-fold change in p62 puncta levels relative to DMSO control)
CC(C)(C)OC(=O)NC1CCN(CCOCCNCc2cc(F)cc3c2ccn3Cc2ccc(Cl)cc2)CC1 [Compound 127]	++ (>2-fold change in p62 puncta levels relative to DMSO control)
OCCNCc1ccc(Cl)c2c1ccn2Cc1ccc(F)cc1 [Compound 80]	++ (>2-fold change in p62 puncta levels relative to DMSO control)
OCCNCc1ccnc2c1ccn2Cc1ccc(Cl)cc1 [Compound 111]	+ (<2-fold change in p62 puncta levels relative to DMSO control)
OCCNCc1cncc2c1ccn2Cc1ccc(F)cc1 [Compound 113]	+ (<2-fold change in p62 puncta levels relative to DMSO control)
CC(C)(C)OC(=O)N1CC(COCCNCc2cc(F)cc3c2ccn3Cc2ccc(Cl)cc2)C1 [Compound 164]	++ (>2-fold change in p62 puncta levels relative to DMSO control)
CC(C)(C)OC(=O)NCCCCCOCCNCc1cc(F)cc2c1ccn2Cc1ccc(Cl)cc1 [Compound 157]	++ (>2-fold change in p62 puncta levels relative to DMSO control)
C#CCCOCCOCCNCc1cc(F)cc2c1ccn2Cc1ccc(Cl)cc1 [Compound 86]	++ (>2-fold change in p62 puncta levels relative to DMSO control)
C#CCCN1CCC(OCCNCc2cc(F)cc3c2ccn3Cc2ccc(Cl)cc2)CC1 [Compound 119]	++ (>2-fold change in p62 puncta levels relative to DMSO control)
COCCNCc1cc(F)cc2c1ccn2Cc1ccc(Cl)cc1 [Compound 108]	++ (>2-fold change in p62 puncta levels relative to DMSO control)
C#CCCOCCNCc1cc(F)cc2c1ccn2Cc1ccc(Cl)cc1 [Compound 143]	++ (>2-fold change in p62 puncta levels relative to DMSO control)
CNCCOCCOCCNCc1cc(F)cc2c1ccn2Cc1ccc(Cl)cc1 [Compound 89]	++ (>2-fold change in p62 puncta levels relative to DMSO control)
CC(C)NCC(O)COc1ccc2c(ccn2Cc2ccccc2)c1 (centres unmarked) [Compound 39]	++ (>2-fold change in p62 puncta levels relative to DMSO control)
C#CCCOCCOCCNCC(O)COc1cccc2c1ccn2Cc1ccccc1 (centres unmarked) [Compound 117]	++ (>2-fold change in p62 puncta levels relative to DMSO control)
CC(C)(C)OC(=O)N[C@H]1CC[C@@H](COCCNCc2cc(F)cc3c2ccn3Cc2ccc(Cl)cc2)CC1 [Compound 176]	++ (>2-fold change in p62 puncta levels relative to DMSO control)
